Measured values reported in PubChem BioAssay (NCI).
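All cell lines were grown in 96-well plates and treated with compound for 48 hours. TGI marks complete inhibition of growth.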

Assays:
Assay in all cases: growth of human tumour cells (NCI), 48 h
[1] = system: CCRF-CEM leukemia
[2] = system: OVCAR-8 ovarian
[3] = system: UO-31 renal
[4] = system: MOLT-4 leukemia
[5] = system: NCI-H522 lung
[6] = system: SK-OV-3 ovarian
[7] = system: EKVX NSCLC
[8] = system: T-47D breast
[9] = system: SK-MEL-28 melanoma
[10] = system: PC-3 prostate
[11] = system: COLO 205 colon
[12] = system: RXF 393 renal
[13] = system: SNB-75 CNS
[14] = system: 786-0 renal
[15] = system: NCI-H226 lung
[16] = system: A498 renal
[17] = system: SF-539 CNS
[18] = system: NCI/ADR-RES ovarian
[19] = system: MDA-MB-231 breast
[20] = system: HOP-92 NSCLC
[21] = system: K-562 leukemia
[22] = system: HL-60(TB) leukemia
[23] = system: HS 578T breast
[24] = system: M14 melanoma
[25] = system: SNB-19 CNS
[26] = system: U251 CNS
[27] = system: SN12C renal
[28] = system: ACHN renal
[29] = system: OVCAR-4 ovarian
[30] = system: KM12 colon
[31] = system: SW-620 colon
[32] = system: MDA-MB-435
[33] = system: MCF7 breast
[34] = system: RPMI-8226 leukemia
[35] = system: BT-549 breast
[36] = system: SK-MEL-5 melanoma
[37] = system: NCI-H460 lung
[38] = system: UACC-62 melanoma
[39] = system: HOP-62 NSCLC
[40] = system: UACC-257 melanoma
[41] = system: NCI-H23 lung
[42] = system: HCC-2998 colon
[43] = system: IGROV1 ovarian
[44] = system: HCT-15 colon
[45] = system: HT29 colon
[46] = system: DU-145 prostate
[47] = system: HCT-116 colon
[48] = system: OVCAR-5 ovarian
[49] = system: SF-268 CNS
[50] = system: SF-295 CNS
[51] = system: OVCAR-3 ovarian
[52] = system: SK-MEL-2 melanoma
[53] = system: TK-10 renal
[54] = system: A549 NSCLC

Measured: TGI

O=C(NCCCCN(CCCNC(=O)C(F)(F)F)Cc1ccccc1)C(F)(F)F
> 100 µM: [1] | [2] | [3] | [4] | [5] | [6] | [7] | [8] | [9] | [10] | [11] | [12] | [13] | [14] | [15] | [16] | [17] | [18] | [19] | [20] | [21] | [22] | [23] | [24] | [25] | [26] | [27] | [28] | [29] | [30] | [31] | [32] | [33] | [34] | [35] | [36] | [37] | [38] | [39] | [40] | [41] | [42] | [43] | [44] | [45] | [46] | [47] | [48] | [49] | [50] | [51] | [52] | [53] | [54]
